According to patent US20220323455A1, “FUSED HETEROCYCLIC DERIVATIVES AS ANTIVIRAL AGENTS” (priority 2019, published 2022):

Each compound was assayed on HBV (assay: HBV replication inhibition assay (BDNA assay) in HepG2.2.15 cells). Conditions: 6 days, encapsidated HBV DNA in supernatant.
Assay type: cell-based, Hepatitis B virus
Experimental: HBV replication inhibition by the disclosed compounds were determined in cells infected or transfected with HBV or cells with stably integrated HBV, such as HepG2.2.15 cells (Sells et al. 1987). In this example, HepG2.2.15 cells were maintained in cell culture medium containing 10% fetal bovine serum (FBS), Geneticin, L-glutamine, penicillin and streptomycin. HepG2.2.15 cells were seeded in 96-well plates at a density of 40,000 cells/well and were treated with serially diluted compounds at a final DMSO concentration of 0.5% either alone or in combination by adding drugs in a checker box format. Cells were incubated with compounds for three days, after which medium was removed and fresh medium containing compounds was added to cells and incubated for another three days. At day 6, supernatant was removed and treated with DNase at 37° C. for 60 minutes, followed by enzyme inactivation at 75° C. for 15 minutes. Encapsidated HBV DNA was released from the virions and covalently linked HBV polymerase by incubating in lysis buffer (Affymetrix QS0010) containing 2.5 μg proteinase K at 50° C. for 40 minutes. HBV DNA was denatured by addition of 0.2 M NaOH and detected using a branched DNA (BDNA) QuantiGene assay kit according to manufacturer recommendation (Affymetrix). HBV DNA levels were also quantified using qPCR, based on amplification of encapsidated HBV DNA extraction with QuickExtraction Solution (Epicentre Biotechnologies) and amplification of HBV DNA using HBV specific PCR probes that can hybridize to HBV DNA and a fluorescently labeled probe for quantitation. In addition, cell viability of HepG2.2.15 cells incubated with test compounds alone or in combination was determined by using CellTitre-Glo reagent according to the manufacturer protocol (Promega). The mean background signal from wells containing only culture medium was subtracted from all other samples, and percent inhibition at each compound concentration was calculated by normalizing to signals from HepG2.2.15 cells treated with 0.5% DMSO using equation E1.
% inhibition(DMSOave−Xi)DMSOave×100% E1:
where DMSOave is the mean signal calculated from the wells that were treated with DMSO control (0% inhibition control) and Xi is the signal measured from the individual wells. EC50 values, effective concentrations that achieved 50% inhibitory effect, were determined by non-linear fitting using Graphpad Prism software (San Diego, Calif.) and equation E2.
Y=Ymin+(Ymax−Ymin)/(1+10(Log EC50−X)×HillSlope) E2:
where Y represents percent inhibition values and X represents the logarithm of compound concentrations.
Selected disclosed compounds were assayed in the HBV replication assay (BDNA assay), as described above, and a representative group of these active compounds is shown in Table 5.
Compound `O=C(Nc1ccc(F)c(C(F)(F)F)c1)N1CCc2nn3c(c2C1)C(F)(F)CCC(COCC(F)F)C3` (single isomer, unassigned) [Example 30, (R*)-8-((2,2-Difluoroethoxy)methyl)-11,11-difluoro-N-(4-fluoro-3-(trifluoromethyl)phenyl)-3,4,8,9,10,11-hexahydro-1H-pyrido[4′,3′:3,4]pyrazolo[1,5-a]azepine-2(7H)-carboxamide] has an EC50 of 267 nM. `C[C@@H]1Cc2nn3c(c2CN1C(=O)Nc1ccc(F)c(C(F)(F)F)c1)C(F)(F)CCC(CO)C3` (single isomer, unassigned) [Example 76, (3R,8S*)-11,11-Difluoro-N-(4-fluoro-3-(trifluoromethyl)phenyl)-8-(hydroxymethyl)-3-methyl-3,4,8,9,10,11-hexahydro-1H-pyrido[4′,3′:3,4]pyrazolo[1,5-a]azepine-2(7H)-carboxamide] showed an EC50 of 5 nM. In the case of `C[C@@H]1Cc2nn3c(c2CN1C(=O)Nc1ccnc(C(F)F)c1F)C(F)(F)CCC(O)(CF)C3` (single isomer, unassigned) [Example 88, (3R,8S*)—N-(2-(Difluoromethyl)-3-fluoropyridin-4-yl)-11,11-difluoro-8-(fluoromethyl)-8-hydroxy-3-methyl-3,4,8,9,10,11-hexahydro-1H-pyrido[4′,3′:3,4]pyrazolo[1,5-a]azepine-2(7H)-carboxamide], the EC50 is reported as 118 nM. `C#CC1(O)CCC(F)(F)c2c3c(nn2C1)CCN(C(=O)Nc1ccc(F)c(C#N)c1)C3` (single isomer, unassigned) [Example 59, (R*)—N-(3-Cyano-4-fluorophenyl)-8-ethynyl-11,11-difluoro-8-hydroxy-3,4,8,9,10,11-hexahydro-1H-pyrido[4′,3′:3,4]pyrazolo[1,5-a]azepine-2(7H)-carboxamide] gave an EC50 of 5 nM. `O=C(Nc1ccc(F)c(C(F)(F)F)c1)N1CCc2nn3c(c2C1)C(F)(F)CCC(COCC(F)F)C3` (single isomer, unassigned) [Example 28, (S*)-8-((2,2-Difluoroethoxy)methyl)-11,11-difluoro-N-(4-fluoro-3-(trifluoromethyl)phenyl)-3,4,8,9,10,11-hexahydro-1H-pyrido[4′,3′:3,4]pyrazolo[1,5-a]azepine-2(7H)-carboxamide] gave an EC50 of 22 nM. Compound `C[C@@H]1Cc2nn3c(c2CN1C(=O)Nc1ccnc(C(F)F)c1F)C(F)(F)CCC(CO)C3` (single isomer, unassigned) [Example 78, (3R,8S*)—N-(2-(Difluoromethyl)-3-fluoropyridin-4-yl)-11,11-difluoro-8-(hydroxymethyl)-3-methyl-3,4,8,9,10,11-hexahydro-1H-pyrido[4′,3′:3,4]pyrazolo[1,5-a]azepine-2(7H)-carboxamide] has an EC50 of 30 nM. Compound `C#CC1(O)CCC(F)(F)c2c3c(nn2C1)CCN(C(=O)Nc1ccc(F)c(C#N)c1)C3` (single isomer, unassigned) [Example 60, (S*)—N-(3-Cyano-4-fluorophenyl)-8-ethynyl-11,11-difluoro-8-hydroxy-3,4,8,9,10,11-hexahydro-1H-pyrido[4′,3′:3,4]pyrazolo[1,5-a]azepine-2(7H)-carboxamide] has an EC50 of 17 nM. In the case of `C[C@@H]1Cc2nn3c(c2CN1C(=O)Nc1ccnc(Br)c1F)C(F)(F)CCC(F)(CO)C3` (single isomer, unassigned) [Example 115, (3R,8R*)—N-(2-Bromo-3-fluoropyridin-4-yl)-8,11,11-trifluoro-8-(hydroxylmethyl)-3-methyl-3,4,8,9,10,11-hexahydro-1H-pyrido[4′,3′:3,4]pyrazolo[1,5-a]azepine-2(7H)-carboxamide], the EC50 is reported as 5 nM. Work on `C[C@@H]1Cc2nn3c(c2CN1C(=O)Nc1ccc(F)c(C#N)c1)C(F)(F)CCC(C(C)(C)O)C3` (single isomer, unassigned) [Example 103, (3R,8R*)—N-(3-Cyano-4-fluorophenyl)-11,11-difluoro-8-(2-hydroxypropan-2-yl)-3-methyl-3,4,8,9,10,11-hexahydro-1H-pyrido[4′,3′:3,4]pyrazolo[1,5-a]azepine-2(7H)-carboxamide] yielded an EC50 of 18 nM. `COC(=O)NCC1CCC(F)(F)c2c3c(nn2C1)C[C@@H](C)N(C(=O)Nc1ccc(F)c(C#N)c1)C3` (single isomer, unassigned) [Example 105, methyl (((3R,8R*)-2-((3-cyano-4-fluorophenyl)carbamoyl)-11,11-difluoro-3-methyl-2,3,4,7,8,9,10,11-octahydro-1H-pyrido[4′,3′:3,4]pyrazolo[1,5-a]azepin-8-yl)methyl)carbamate] gave an EC50 of 3 nM. With `O=C(Nc1ccnc(C(F)F)c1F)N1CCc2nn3c(c2C1)C(F)(F)CCC(O)(COCC(F)F)C3` (single isomer, unassigned) [Example 36, (S*)-8-((2,2-Difluoroethoxy)methyl)-N-(2-(difluoromethyl)-3-fluoropyridin-4-yl)-11,11-difluoro-8-hydroxy-3,4,8,9,10,11-hexahydro-1H-pyrido[4′,3′:3,4]pyrazolo[1,5-a]azepine-2(7H)-carboxamide] the EC50 was 39 nM. With `C[C@@H]1Cc2nn3c(c2CN1C(=O)Nc1ccc(F)c(C(F)(F)F)c1)C(F)(F)CCC(CO)C3` (single isomer, unassigned) [Example 80, (3R,8R*)-11,11-Difluoro-N-(4-fluoro-3-(trifluoromethyl)phenyl)-8-(hydroxymethyl)-3-methyl-3,4,8,9,10,11-hexahydro-1H-pyrido[4′,3′:3,4]pyrazolo[1,5-a]azepine-2(7H)-carboxamide] the EC50 was 1 nM. Work on `N#Cc1cc(NC(=O)N2CCc3nn4c(c3C2)C(F)(F)CCC(CO)C4)ccc1F` (single isomer, unassigned) [Example 19, (S*)—N-(3-Cyano-4-fluorophenyl)-11,11-difluoro-8-(hydroxymethyl)-3,4,8,9,10,11-hexahydro-1H-pyrido[4′,3′:3,4]pyrazolo[1,5-a]azepine-2(7H)-carboxamide] yielded an EC50 of 4 nM. With `C[C@@H]1Cc2nn3c(c2CN1C(=O)Nc1ccnc(Br)c1F)C(F)(F)CC(O)CC3` (single isomer, unassigned) [Example 118, (3R,9R*)—N-(2-Bromo-3-fluoropyridin-4-yl)-11,11-difluoro-9-hydroxyl-3-methyl-3,4,8,9,10,11-hexahydro-1H-pyrido[4′,3′:3,4]pyrazolo[1,5-a]azepine-2(7H)-carboxamide] the EC50 was 3 nM. `N#CCC1(O)CCC(F)(F)c2c3c(nn2C1)CCN(C(=O)Nc1ccnc(C(F)F)c1F)C3` (single isomer, unassigned) [Example 44, (S*)-8-(Cyanomethyl)-N-(2-(difluoromethyl)-3-fluoropyridin-4-yl)-11,11-difluoro-8-hydroxy-3,4,8,9,10,11-hexahydro-1H-pyrido[4′,3′:3,4]pyrazolo[1,5-a]azepine-2(7H)-carboxamide] gave an EC50 of 333 nM. With `C[C@@H]1Cc2nn3c(c2CN1C(=O)Nc1ccc(F)c(C#N)c1)C(F)(F)CC(O)(CF)CC3` (single isomer, unassigned) [Example 130, (3R,9S*)—N-(3-Cyano-4-fluorophenyl)-11,11-difluoro-9-(fluoromethyl)-9-hydroxy-3-methyl-3,4,8,9,10,11-hexahydro-1H-pyrido[4′,3′:3,4]pyrazolo[1,5-a]azepine-2(7H)-carboxamide] the EC50 was 2 nM. `N#CCC1(O)CCC(F)(F)c2c3c(nn2C1)CCN(C(=O)Nc1ccnc(Br)c1F)C3` (single isomer, unassigned) [Example 43, (S*)—N-(2-Bromo-3-fluoropyridin-4-yl)-8-(cyanomethyl)-11,11-difluoro-8-hydroxy-34,89,10,11-hexahydro-1H-pyrido[4′,3′:3,4]pyrazolo[1,5-a]azepine-2(7H)-carboxamide] was tested, and the EC50 was 282 nM. With `O=C(Nc1ccnc(Br)c1F)N1CCc2nn3c(c2C1)C(F)(F)CCC(CO)C3` (single isomer, unassigned) [Example 22, (S*)—N-(2-Bromo-3-fluoropyridin-4-yl)-11,11-difluoro-8-(hydroxymethyl)-3,4,8,9,10,11-hexahydro-1H-pyrido[4′,3′:3,4]pyrazolo[1,5-a]azepine-2(7H)-carboxamide] the EC50 was 4 nM. Compound `O=C(Nc1ccnc(Br)c1F)N1CCc2nn3c(c2C1)C(F)(F)CCC(F)(CO)C3` (single isomer, unassigned) [Example 47, (S*)—N-(2-Bromo-3-fluoropyridin-4-yl)-8,11,11-trifluoro-8-(hydroxymethyl)-3,4,8,9,10,11-hexahydro-1H-pyrido[4′,3′:3,4]pyrazolo[1,5-a]azepine-2(7H)-carboxamide] has an EC50 of 156 nM.

Same assay, conditions: Hepatitis B virus, HepG2.2.15, 144 h, 6 days, encapsidated HBV DNA in supernatant
For `C[C@@H]1Cc2nn3c(c2CN1C(=O)Nc1ccc(F)c(C#N)c1)C(F)(F)CC[C@H](CO)C3` (relative stereo) [Example 75], the EC50 was 5 nM.
